Laboratory results: patent US20090012152A1, “Use of Tetramic Acid Derivatives for Controlling Insects from the Genus of the Plane Lice (Sternorrhyncha)” (Bayer CropScience Aktiengesellschaft, priority 2005, published 2009)

Experiments:
Type in all cases: in vivo
[1] = test system: Bemisia argentifolii; test: Example 35: aubergines (F 100) treated against Bemisia argentifolii; settings: 7 d after last of three treatments, nymphs on leaves, % a.i.: imidacloprid 0.014, I-9, I-2, I-11 0.0144
Description: In three replications, plots of a size of 10 m^2 with aubergines of the cultivar “F 100” are treated against Bemisia argentifolii. The application is carried out using a knapsack sprayer operated with pressurized air. Here, the active compounds Example (I-9) (60 SC), Example (I-2) (60 SC) and Example (I-11) (60 SC) and the commercial standard imidacloprid (70 WG) are tested at the stated application rates. Three applications are carried out, at an interval or 7 or 8 days. The application rate is 1000 l of water/ha.
Evaluation is carried out 7 days after the last treatment by rating the kill of the nymphs on the leaves.

[2] = test system: Dysaphis plantaginea; test: Example 41: apple trees treated against Dysaphis plantaginea (Henderson and Tilton); settings: live animals on shoots, % a.i.: imidacloprid 0.007, I-9 0.0144, I-2 0.0144; for Effect (%) 7 d: 7 d after treatment; for Effect (%) 14 d: 14 d after treatment
Description: (§1) In three replications, three about 8-year-old apple trees of the cultivar “Golden Delicious” are treated eradicatively against Dysaphis plantaginea and Aphis pomi. The application is carried out using a motor-operated barrow-mounted sprayer. Here, the active compounds Example (I-9) (240 SC) and Example (I-2) (240 SC) in the stated amount are tested against the commercial standard imidacloprid (200 SL), at the stated application rate. The application rate is 1200 l of water/ha.
(§2) Evaluation is carried out before and also 7 d and 14 d after the treatment by counting the live animals on the shoots. The efficacy is then calculated by calculating the effect on the population in percent according to Henderson and Tilton.

[3] = test system: Aphis pomi; test: Example 41: apple trees treated against Aphis pomi (Henderson and Tilton); settings: live animals on shoots, % a.i.: imidacloprid 0.007, I-9 0.0144, I-2 0.0144; for Effect (%) 7 d: 7 d after treatment; for Effect (%) 14 d: 14 d after treatment
Description: as §1, §2

[4] = test system: Macrosiphum euphorbiae; test: Example 43: aubergines treated against Macrosiphum euphorbiae; settings: nymphs on leaves, % a.i.: imidacloprid 0.014, I-9, I-2, I-11 0.0144; for Kill (%) 7 d: 7 d after second treatment; for Kill (%) 14 d: 14 d after second treatment
Description: In three replications, plots of a size of 10 m^2 with aubergines of the cultivar “F 100” are treated against Macrosiphum euphorbiae. The application is carried out using a knapsack sprayer operated with pressurized air. Here, the active compounds Example (I-9) (60 SC), Example (I-2) (60 SC) and Example (I-11) (60 SC) and the commercial standard imidacloprid (70 WG) are tested at the stated application rates. Three applications are carried out, at an interval of 7 or 8 days. The application rate is 1000 l of water/ha.
Evaluation is carried out 7 and 14 days after the second treatment by rating the kill of the nymphs on the leaves.

[5] = test system: Viteus vitifolii; test: Example 4: vines treated against Viteus vitifolii; settings: 60 days after last of three treatments, on roots, imidacloprid drip irrigation 560 g/ha, I-4 0.0168%, I-9 0.0144% leaf spray
Description: In four replications, three in each case about 12-year-old vines of the cultivar “Auvemat” are treated against Viteus vitifolii. As commercial standard, imidacloprid is used at the recommended application rate by drip irrigation. The application of the active compounds is by spray application to the leaves using a knapsack operated with pressurized air. Here, the active compounds Example (I-4) (240 SC) and Example (I-9) (240 SC) are applied in a tank mix with 0.1% a.i. of rapeseed oil methyl ester (500 EW) at the stated amount. There are three applications on day 1, 2 and 15. The application rate is 1776 l of water/ha.
Evaluation is carried out 60 days after the last treatment by rating the kill on the roots in percent.

[6] = test system: Pseudococcus spp.; test: Example 28: vines treated against Pseudococcus spp.; settings: 28 days after last of two treatments, on grapes, imidacloprid drip irrigation 560 g/ha, I-4 0.0168%, I-9 0.0144% spray
Description: In four replications, three in each case about 12-year-old vines of the cultivar “Auvemat” are treated against Pseudococcus spp. The commercial standard used is an application with imidacloprid at the recommended application rate, by drip irrigation. The active compounds are applied by spraying using a knapsack sprayer operated with pressurized air. Here, the active compounds Example (I-4) (240 SC) and Example (I-9) (240 SC) are applied in a tank mix with 0.1% a.i. of rapeseed oil methyl ester (500 EW), at the stated amount. Two applications are carried out at an interval of 15 days. The application rate is 1776 l of water/ha. Evaluation is carried out 28 days after the last treatment by rating the kill on grapes in percent.

[7] = test system: Bemisia tabaci; test: Example 33: cucumbers treated against Bemisia tabaci; settings: nymphs on leaves, % a.i.: imidacloprid 0.144, I-4 0.084; for Kill (%) 7 d: 7 d after first of two treatments; for Kill (%) 11 d: 11 d after first of two treatments; for Kill (%) 21 d: 21 d after first of two treatments
Description: In four replications, plots of a size of 26 m^2 with cucumbers of the cultivar “Beta alpha” are treated against Bemisia tabaci. The application is carried out using a knapsack sprayer operated with pressurized air. Here, the active compound Example (I-4) (240 SC), in a tank mix with 0.1% a.i. of rapeseed oil methyl ester (500 EW), and the commercial standard imidacloprid (200 SC) are tested at the stated application rates. Two applications are carried out, at an interval of 10 days. The application rate is 1000 l of water/ha.
Evaluation is carried out 7, 11 and 21 days after the first treatment by rating the kill of the animals (nymphs) on leaves.

[8] = test system: Toxoptera citricida; test: Example 45: orange tree treated against Toxoptera citricida; settings: on leaves, % a.i.: imidacloprid 0.0125, I-9 0.0144, I-4 0.0144; for Kill (%) 6 d: 6 d after treatment; for Kill (%) 20 d: 20 d after treatment
Description: In three replications, in each case one about 8-year-old orange tree of the cultivar “Navel” is treated against Toxoptera citricida. Here, the active compounds Example (I-9) (240 SC) and Example (I-4) (240 SC), in a tank mix with 0.1% a.i. of Marlipal, are tested against the commercial standard imidacloprid (350 SC), at the stated application rates. The application is carried out using a motor-operated knapsack sprayer, the application rate being 6.7 l of water/plant.
Evaluation is carried out 6 and 20 days after the treatment by rating the kill of the animals on the leaves.

| Structure (SMILES) | Kill (%) 7 d [1] | Effect (%) 7 d [2] | Effect (%) 14 d [2] | Effect (%) 7 d [3] | Effect (%) 14 d [3] | Kill (%) 7 d [4] | Kill (%) 14 d [4] | Kill (%) [5] | Kill (%) [6] | Kill (%) 7 d [7] | Kill (%) 11 d [7] | Kill (%) 21 d [7] | Kill (%) 6 d [8] | Kill (%) 20 d [8] |
| --- | --- | --- | --- | --- | --- | --- | --- | --- | --- | --- | --- | --- | --- | --- |
| CCOC(=O)OC1=C(c2cc(C)ccc2Br)C(=O)NC12CCC(OC)CC2 (stereo not shown) [Example (I-2)] | 100% | 92.3% | 99.2% | 99.1% | 97.1% | 99% | 91% |  |  |  |  |  |  |  |
| CCOC(=O)OC1=C(c2cc(C)ccc2C)C(=O)NC12CCC(OC)CC2 (stereo not shown) [Example (I-4)] |  |  |  |  |  |  |  | 55% | 99% | 75% | 87% | 90% | 97% | 97% |
| O=[N+]([O-])NC1=NCCN1Cc1ccc(Cl)nc1 [imidacloprid, reference compound] | 100% | 99.6% | 99.5% | 99% | 83.5% | 100% | 100% | 26% | 100% | 89% | 96% | 96% | 99% | 94% |
